Experimental data taken from patent US20120115724A1, “METHOD OF CONTROLLING UNDESIRED VEGETATION” (SYNGENTA CROP PROTECTION LLC, priority 2009, published 2012).

Key:
Assay type in all cases: in vivo
[1] = test system: Amaranthus retroflexus (AMARE); assay: Post-emergence biological efficacy (Example 14); conditions: post-emergence, 1,000 g/ha, after 13 days; for pest or weed control at 1000 g/ha: Amaranthus retroflexus, 312 h, read-out: Percentage damage AMARE
Procedure: (§1) Seeds of Alopecurus myosuroides (ALOMY), Setaria faberi (SETFA), Echinochloa crus-galli (ECHCG), Solanum nigrum (SOLNI), Amaranthus retroflexus (AMARE) and Ipomea hederaceae (IPOHE) were sown in standard soil in pots. After cultivation for 8 days under controlled conditions in a glasshouse (at 24/16° C., day/night; 14 hours light; 65% humidity), the plants were sprayed with an aqueous spray solution derived from the formulation of the technical active ingredient in acetone/water (50:50) solution containing 0.5% Tween 20 (polyoxyethylene sorbitan monolaurate, CAS RN 9005-64-5) to give a final dose of 250 or 1000 g/ha of test compound. The test plants were then grown on under controlled conditions in a glasshouse (at 24/16° C., day/night; 14 hours light; 65% humidity) and watered twice daily. After 13 days the test was evaluated (100=total damage to plant; 0=no damage to plant).

Solanum nigrum (SOLNI) [2] = assay: Post-emergence biological efficacy (Example 14); conditions: post-emergence, 1,000 g/ha, after 13 days; for pest or weed control at 1000 g/ha: Solanum nigrum, 312 h, read-out: Percentage damage SOLNI
Procedure: as §1

[3] = test system: Echinochloa crus-galli (ECHCG); assay: Post-emergence biological efficacy (Example 14); conditions: post-emergence, 1,000 g/ha, after 13 days; for pest or weed control at 1000 g/ha: Echinochloa crus-galli, 312 h, read-out: Percentage damage ECHCG
Procedure: as §1

Setaria faberi (SETFA) [4] = assay: Post-emergence biological efficacy (Example 14); conditions: post-emergence, 1,000 g/ha, after 13 days; for pest or weed control at 1000 g/ha: Setaria faberi, 312 h, read-out: Percentage damage SETFA
Procedure: as §1

[5] = test system: Ipomea hederaceae (IPOHE); assay: Post-emergence biological efficacy (Example 14); conditions: post-emergence, 1,000 g/ha, after 13 days; for pest or weed control at 1000 g/ha: Ipomoea hederacea, 312 h, read-out: Percentage damage IPOHE
Procedure: as §1

[6] = test system: Alopecurus myosuroides (ALOMY); assay: Post-emergence biological efficacy (Example 14); conditions: post-emergence, 1,000 g/ha, after 13 days; for pest or weed control at 1000 g/ha: Alopecurus myosuroides, 312 h, read-out: Percentage damage ALOMY
Procedure: as §1

[7] = test system: Amaranthus retroflexus (AMARE); assay: Pre-emergence biological efficacy (Example 13); conditions: pre-emergence, 1,000 g/ha, after 13 days; for pest or weed control at 1000 g/ha: Amaranthus retroflexus, 312 h, read-out: Percentage damage AMARE
Procedure: (§2) Seeds of Alopecurus myosuroides (ALOMY), Setaria faberi (SETFA), Echinochloa crus-galli (ECHCG), Solanum nigrum (SOLNI), Amaranthus retroflexus (AMARE) and Ipomea hederaceae (IPOHE) were sown in standard soil in pots. After cultivation for one day under controlled conditions in a glasshouse (at 24/16° C., day/night; 14 hours light; 65% humidity), the plants were sprayed with an aqueous spray solution derived from the formulation of the technical active ingredient in acetone/water (50:50) solution containing 0.5% Tween 20 (polyoxyethylene sorbitan monolaurate, CAS RN 9005-64-5) to give a final dose of 250 or 1000g/ha of test compound. The test plants were then grown under controlled conditions in the glasshouse (at 24/16° C., day/night; 14 hours light; 65% humidity) and watered twice daily. After 13 days the test was evaluated (100 =total damage to plant; 0 =no damage to plant).

Solanum nigrum (SOLNI) [8] = assay: Pre-emergence biological efficacy (Example 13); conditions: pre-emergence, 1,000 g/ha, after 13 days; for pest or weed control at 1000 g/ha: Solanum nigrum, 312 h, read-out: Percentage damage SOLNI
Procedure: as §2

[9] = test system: Echinochloa crus-galli (ECHCG); assay: Pre-emergence biological efficacy (Example 13); conditions: pre-emergence, 1,000 g/ha, after 13 days; for pest or weed control at 1000 g/ha: Echinochloa crus-galli, 312 h, read-out: Percentage damage ECHCG
Procedure: as §2

Setaria faberi (SETFA) [10] = assay: Pre-emergence biological efficacy (Example 13); conditions: pre-emergence, 1,000 g/ha, after 13 days; for pest or weed control at 1000 g/ha: Setaria faberi, 312 h, read-out: Percentage damage SETFA
Procedure: as §2

[11] = test system: Ipomea hederaceae (IPOHE); assay: Pre-emergence biological efficacy (Example 13); conditions: pre-emergence, 1,000 g/ha, after 13 days; for pest or weed control at 1000 g/ha: Ipomoea hederacea, 312 h, read-out: Percentage damage IPOHE
Procedure: as §2

[12] = test system: Alopecurus myosuroides (ALOMY); assay: Pre-emergence biological efficacy (Example 13); conditions: pre-emergence, 1,000 g/ha, after 13 days; for pest or weed control at 1000 g/ha: Alopecurus myosuroides, 312 h, read-out: Percentage damage ALOMY
Procedure: as §2

Structure (SMILES)	pest or weed control at 1000 g/ha [1]	pest or weed control at 1000 g/ha (Solanum nigrum (SOLNI) [2])	pest or weed control at 1000 g/ha [3]	pest or weed control at 1000 g/ha (Setaria faberi (SETFA) [4])	pest or weed control at 1000 g/ha [5]	pest or weed control at 1000 g/ha [6]	pest or weed control at 1000 g/ha [7]	pest or weed control at 1000 g/ha (Solanum nigrum (SOLNI) [8])	pest or weed control at 1000 g/ha [9]	pest or weed control at 1000 g/ha (Setaria faberi (SETFA) [10])	pest or weed control at 1000 g/ha [11]	pest or weed control at 1000 g/ha [12]	other results
C=Cc1c(NCc2ccccc2[N+](=O)[O-])nc(-c2ccc(Cl)c(N(C)C)c2F)nc1C(=O)OC [Compound 16, 2-(4-Chloro-3-dimethylamino-2-fluorophenyl)-5-ethenyl-6-methoxycarbonyl-4-(2-nitrophenylmethyl-amino)-pyrimidine]	100%	80%	70%	90%	60%	70%	50%	30%	70%	70%	0%	60%	
C=Cc1c(NCc2ccco2)nc(-c2ccc(Cl)c(N(C)C)c2F)nc1C(=O)OC [Compound 13, 2-(4-Chloro-3-dimethylamino-2-fluorophenyl)-5-ethenyl-4-(furan-2-ylmethylamino)-6-methoxycarbonyl-pyrimi-dine]	100%	100%	80%	80%	40%	70%	90%	90%	90%	60%	20%	70%	
C=Cc1c(NCc2ccco2)nc(-c2ccc(Cl)c(OC)c2F)nc1C(=O)OCc1ccccc1 [Compound 47, 2-(4-Chloro-2-fluoro-3-methoxyphenyl)-5-ethenyl-4-(furan-2-ylmethylamino)-6-phenylmethoxy-carbonyl-pyrimidine]	100%	80%	80%	80%	80%	60%	70%	80%	90%	50%	80%	30%	
C=Cc1c(N)nc(-c2ccc(Cl)c(N(C)C)c2F)nc1C(=O)OCCCCCCCC [Compound 41, 4-Amino-2-(4-chloro-3-dimethylamino-2-fluorophenyl)-5-ethenyl-6- ^noctyloxycarbonyl-pyrimidine]													Percentage damage AMARE [1]: 100%; Percentage damage SOLNI (Solanum nigrum (SOLNI) [2]): 90%; Percentage damage ECHCG [3]: 80%; Percentage damage SETFA (Setaria faberi (SETFA) [4]): 60%; Percentage damage IPOHE [5]: 80%; Percentage damage ALOMY [6]: 70%; Percentage damage AMARE [7]: 100%; Percentage damage SOLNI (Solanum nigrum (SOLNI) [8]): 80%; Percentage damage ECHCG [9]: 100%; Percentage damage SETFA (Setaria faberi (SETFA) [10]): 90%; Percentage damage IPOHE [11]: 0%; Percentage damage ALOMY [12]: 70%
C=Cc1c(NCc2ccco2)nc(-c2ccc(Cl)c(OC)c2F)nc1C(=O)O [Compound 35, 2-(4-Chloro-2-fluoro-3-methoxyphenyl)-5-ethenyl-4-(furan-2-ylmethylamino)-pyrimidine-6-carboxylic acid]	100%	90%	80%	80%	70%	70%	100%	100%	90%	90%	100%	70%	
C=Cc1c(NC2CCC2)nc(-c2ccc(Cl)c(OC)c2F)nc1C(=O)OC [Compound 24, 2-(4-Chloro-2-fluoro-3-methoxyphenyl)-4-cyclobutylamino-5-ethenyl-6-methoxycarbonyl pyrimidine]	100%	90%	40%	10%	70%	10%	100%	80%	50%	0%	80%	10%	
C/C=C/c1c(N)nc(-c2ccc(Cl)c(N(C)C)c2F)nc1C(=O)OC [Compound 12, (E)-4-Amino-2-(4-chloro-3-dimethylamino-2-fluorophenyl)-6-methoxy-carbonyl-5-(prop-1-enyl)-pyrimidine]	100%	80%	80%	80%	40%	80%	100%	80%	90%	80%	0%	70%	
C=Cc1c(NCc2ccco2)nc(-c2ccc(Cl)c(OC)c2F)nc1C(=O)OCCOCC [Compound 48, 2-(4-Chloro-2-fluoro-3-methoxyphenyl)-5-ethenyl-6-(2-ethoxy-ethoxy)carbonyl-4-(furan-2-ylmethylamino)-pyrimidine]	40%	50%	0%	0%	60%	0%	0%	0%	0%	0%	0%	0%	
C=Cc1c(N)nc(-c2ccc(Cl)c(N(C)C)c2F)nc1C(=O)OCCOCCCC [Compound 46, 4-Amino-6-(2- ^nbutoxy-ethoxy)carbonyl-2-(4-chloro-3-dimethylamino-2-fluorophenyl)-5-ethenyl-pyrimidine]													Percentage damage AMARE [1]: 100%; Percentage damage SOLNI (Solanum nigrum (SOLNI) [2]): 90%; Percentage damage ECHCG [3]: 90%; Percentage damage SETFA (Setaria faberi (SETFA) [4]): 90%; Percentage damage IPOHE [5]: 80%; Percentage damage ALOMY [6]: 80%; Percentage damage AMARE [7]: 100%; Percentage damage SOLNI (Solanum nigrum (SOLNI) [8]): 100%; Percentage damage ECHCG [9]: 100%; Percentage damage SETFA (Setaria faberi (SETFA) [10]): 90%; Percentage damage IPOHE [11]: 50%; Percentage damage ALOMY [12]: 80%
C=Cc1c(NCc2ccccc2F)nc(-c2ccc(Cl)c(OC)c2F)nc1C(=O)OC [Compound 14, 2-(4-Chloro-2-fluoro-3-methoxyphenyl)-5-ethenyl-4-(2-fluorophenylmethylamino)-6-methoxycarbonyl-pyrimi-dine]	100%	90%	0%	0%	60%	0%	20%	60%	0%	0%	50%	0%	
